IC50 data for four compounds are collected here from patent US20250152591A1, “TREATMENT OF HEMATOLOGICAL MALIGNANCIES WITH MENIN INHIBITORS AND P-GLYCOPROTEIN INHIBITORS” (Kura Oncology, Inc., priority 2022, published 2025).

Read-outs that look alike come from different tables or passages of the source.

Series [1] concerns the target T1, Menin (Homo sapiens, UniProt O00255).
T1 sequence (O00255 1-610): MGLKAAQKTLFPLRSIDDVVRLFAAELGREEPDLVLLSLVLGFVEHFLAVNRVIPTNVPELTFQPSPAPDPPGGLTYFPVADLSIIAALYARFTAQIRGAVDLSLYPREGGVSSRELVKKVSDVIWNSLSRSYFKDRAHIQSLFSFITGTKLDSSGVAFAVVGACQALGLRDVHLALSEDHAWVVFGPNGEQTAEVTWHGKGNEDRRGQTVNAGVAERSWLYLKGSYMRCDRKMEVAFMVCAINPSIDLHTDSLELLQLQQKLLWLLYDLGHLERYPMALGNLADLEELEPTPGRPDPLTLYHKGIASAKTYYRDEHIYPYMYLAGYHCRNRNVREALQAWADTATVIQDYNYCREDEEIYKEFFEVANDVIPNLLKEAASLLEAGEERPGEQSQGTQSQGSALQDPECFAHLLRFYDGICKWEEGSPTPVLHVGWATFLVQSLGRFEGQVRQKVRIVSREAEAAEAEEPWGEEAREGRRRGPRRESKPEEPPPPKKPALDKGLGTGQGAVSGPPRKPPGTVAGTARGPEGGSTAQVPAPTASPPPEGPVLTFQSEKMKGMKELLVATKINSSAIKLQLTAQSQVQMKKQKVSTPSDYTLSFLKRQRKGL
Description: Menin binding, fluorescence polarization assay. Conditions: fluorescence polarization assay analogous to WO2017/161028, Example 6. On the procedure:
Menin binding was evaluated using an assay analogous to the fluorescence polarization assay described in PCT Publ. No. WO2017/161028, Example 6.
Background: Polarisation of emitted light reports the rotation of a fluorescent probe.

Series [2] deals with MV4;11-Control cell line. Description: CellTiter-Glo cell viability assay, MV4;11-Control. Set-up: unit of the concentration uncertain. Conditions: second set of experiments. It counts as cell-based. Here is the method: (§1) The influence of efflux pumps on the antitumor activity of the test compounds at steady state (more clinically relevant) were evaluated using P-gp-transfected AML cells (MV4;11 cells) in 6-day viability assays.
(§2) A P-gp-expressing KMT2A(MLL)-rearranged cell line model was developed by lentiviral transduction of the MV4;11 parental cell line and then selection for either Luciferase ORF (MV4;11-Control) or P-gp ORF (MV4;11-PGP).
(§3) […] Cell viability was measured by CellTiter-Glo® Luminescent Cell Viability Assay (CTG assay, Promega Corp.) and % Viability was quantified by normalizing to the luminescence values of DMSO-only treated cells. The dose-response curves and IC50's were calculated using GraphPad Prism 9.4.1.
(§4) The measured luminescence in the live cells of the MV4;11-Control and MV4;11-PGP cells that were treated with Compound I only (+DMSO), Compound I+posaconazole […], and valspodar (1 mM) are shown in FIGS. 5A and 5B.
(§5) In a second set of experiments, MV4;11-Control and MV4;11-PGP cell lines were treated as described above with five menin inhibitors, including Compound I, SNDX-5613, Compound A, Compound B, and Compound C, at concentrations ranging from 0 to 1000 nM. All tested compounds dropped in potency due to the P-gp expression as shown in FIGS. 6A-6J and in Tables 5 and 6 (indicated by increased IC50 values between “MV4;11-Control (Compound+DMSO)” and “MV4;11-PGP (Compound+DMSO)” entries).
In general terms: In ATP-based viability assays light output follows the ATP content of the culture.

The subject of series [3] is MOLM13-Control cell line. Description: Cell viability assay, MOLM13-Control. It counts as cell-based. Set-up: unit of the concentration uncertain. Conditions: 168 h, 7 days. On the procedure: (§6) The effects described above were investigated in an AML cell line, MOLM-13, which carries a KA4T2A (MLL)-rearrangement mutation. The P-gp expressing MOLM-13 cell line (MOLM13-PGP) and the Luciferase expressing MOLM-13 cell line (MOLM13-Control) were established by lentivirally transducing P-gp ORF or Luciferase ORF. Cells were plated and treated with test compound for 7 days.

Series [4] relates to MOLM13-PGP cell line. Nature of the series: Cell viability assay, MOLM13-PGP. It counts as cell-based. Also on record: unit of the concentration uncertain. The conditions noted are these: 168 h, 7 days. On the procedure: as §6
Series [5] deals with OCI-AML3-Control cell line. Description: Cell viability assay, OCI-AML3-Control. It counts as cell-based. Set-up: unit of the concentration uncertain. The conditions noted are these: 168 h, 7 days. On the procedure: (§7) A third set of experiments was conducted in the cell line OCI-AML3, which carries the W288Cfs*12 mutation in NPM protein. The P-gp expressing OCI-AML3 cell line (OCI-AML3-PGP) and the Luciferase expressing OC-AML3 cell line (OCI-AML3-Control) were established by lentivirally transducing P-gp ORF or Luciferase ORF. Cells were treated with Compound I or SNDX-5613 for 7 days to assess the IC50 values.

In series [6] the test system is MV4;11-PGP cell line. Nature of the series: CellTiter-Glo cell viability assay, MV4;11-PGP. It counts as cell-based. Set-up: unit of the concentration uncertain. Conditions: second set of experiments. On the procedure: as §1, §2, §3, §4, §5
Series [7] concerns OCI-AML3-PGP cell line. Nature of the series: Cell viability assay, OCI-AML3-PGP. Also on record: unit of the concentration uncertain. It counts as cell-based. The conditions noted are these: 168 h, 7 days. Here is the method: as §7

As usually defined, the IC50 is the point on the concentration scale where inhibition reaches its midpoint. Consider `Cc1c(CN2CCC(Nc3nc(N)nc4sc(CC(F)(F)F)cc34)CC2)ccc2c1cc(C#N)n2C[C@H](C)N1CCN(S(C)(=O)=O)CC1` [Compound IA], for which the IC50 in series [1] worked out at 36.2 nM.

Take `CNc1nc(NC2CCN(Cc3ccc4c(cc(C#N)n4C[C@H](C)N4CCN(S(C)(=O)=O)CC4)c3C)CC2)c2cc([C@@H](O)C(F)(F)F)sc2n1` [Compound IB, 4-methyl-5-((4-((2-(methylamino)-6-((S)-2,2,2-trifluoro-1-hydroxyethyl)thieno[2,3-d]pyrimidin-4-yl)amino)piperidin-1-yl)methyl)-1-((S)-2-(4-(methylsulfonyl)piperazin-1-yl)propyl)-1H-indole-2-carbonitrile]: the IC50 in series [1] came out at 63.5 nM.

Consider `CNc1nc(NC2CCN(Cc3ccc4c(cc(C#N)n4C[C@H](C)N4CCN(S(C)(=O)=O)CC4)c3C)CC2)c2cc([C@H](O)C(F)(F)F)sc2n1` [Compound IC, 4-methyl-5-((4-((2-(methylamino)-6-((R)-2,2,2-trifluoro-1-hydroxyethyl)thieno[2,3-d]pyrimidin-4-yl)amino)piperidin-1-yl)methyl)-1-((S)-2-(4-(methylsulfonyl)piperazin-1-yl)propyl)-1H-indole-2-carbonitrile], for which the IC50 in series [1] was found to be 401 nM.

Regarding `CCN(C(=O)c1cc(F)ccc1Oc1cncnc1N1CC2(CCN(C[C@H]3CC[C@H](NS(=O)(=O)CC)CC3)CC2)C1)C(C)C` [SNDX-5613], the IC50 in series [2] (144 h, 0 to 1000 nM, Table 5, read-out: IC50 MV4;11-Control (Compound + DMSO)) amounted to 8.55 nM; in series [2] (144 h, 0 to 1000 nM, Table 6, read-out: IC50 MV4;11-Control (Compound + DMSO)), 8.58 nM; in series [2] (posaconazole (1.5 (unit uncertain)), Table 5, read-out: IC50 MV4;11-Control (Compound + posaconazole)), 7.33 nM; in series [2] (valspodar (1 (unit uncertain)), Table 6, read-out: IC50 MV4;11-Control (Compound + valspodar)), 7.61 nM; in series [3] (Table 7, read-out: IC50 MOLM13-Control (Compound + DMSO)), 30.1 nM; in series [3] (Table 8, read-out: IC50 MOLM13-Control (compound + DMSO)), 28 nM. Also, the IC50 is 24.8 nM in series [3] (posaconazole (1.5 (unit uncertain)), Table 7, read-out: IC50 MOLM13-Control (Compound + posaconazole)); 29.5 nM in series [3] (valspodar (1 (unit uncertain)), Table 8, read-out: IC50 MOLM13-Control (Compound + valspodar)); more than 900 nM in series [4] (Table 7, read-out: IC50 MOLM13-PGP (Compound + DMSO)); 38.6 nM in series [4] (posaconazole (1.5 (unit uncertain)), Table 7, read-out: IC50 MOLM13-PGP (Compound + posaconazole)); 37.1 nM in series [4] (valspodar (1 (unit uncertain)), Table 8, read-out: IC50 MOLM13-PGP (Compound + valspodar)); 25.7 nM in series [5] (Table 9, read-out: IC50 OCI-AML3-Control (Compound + DMSO)). Further, the IC50 was found to be 26.4 nM in series [5] (Table 10, read-out: IC50 OCI-AML3-Control (Compound + DMSO)); 38.8 nM in series [5] (posaconazole (0.75 (unit uncertain)), Table 9, read-out: IC50 OCI-AML3-Control (Compound + posaconazole)); 41.5 nM in series [5] (valspodar (1 (unit uncertain)), Table 10, read-out: IC50 OCI-AML3-Control (Compound + valspodar)); 183 nM in series [6] (144 h, 0 to 1000 nM, Table 5, read-out: IC50 MV4;11-PGP (Compound + DMSO)); 173 nM in series [6] (144 h, 0 to 1000 nM, Table 6, read-out: IC50 MV4;11-PGP (Compound + DMSO)); 17.1 nM in series [6] (posaconazole (1.5 (unit uncertain)), Table 5, read-out: IC50 MV4;11-PGP (Compound + posaconazole)). Further, the IC50 in series [6] (valspodar (1 (unit uncertain)), Table 6, read-out: IC50 MV4;11-PGP (Compound + valspodar)) was 8.15 nM; in series [7] (Table 9, read-out: IC50 OCI-AML3-PGP (Compound + DMSO)) it was more than 300 nM; in series [7] (posaconazole (0.75 (unit uncertain)), Table 9, read-out: IC50 OCI-AML3-PGP (Compound + posaconazole)), 47.7 nM; in series [7] (valspodar (1 (unit uncertain)), Table 10, read-out: IC50 OCI-AML3-PGP (Compound + valspodar)), 31.7 nM.
